Experimental data: patent US20190201419A1, “COMPOUND AND METHOD FOR THE TREATMENT AND DIAGNOSIS OF NEURODEGENERATIVE CONDITIONS” (Swansea University, priority 2013, published 2019)

How the values were obtained:
Lxrβ = target: T1, Lxrβ (Homo sapiens, UniProt P55055); assay: Lxrβ luciferase reporter assay in SN4741 neural cells; format: cell-based, mouse; details: for Lxr activational capacity in combination with 22R-HC: 10 μM acid + 10 μM 22R-HC; for Lxrβ activation, luciferase activity (fold activation): SN4741 cells, 10 μM, 24 h
T1 construct: expressed in transfected cells; host or cells: SN4741 mouse neuronal cell line
T1 sequence (P55055 1-460): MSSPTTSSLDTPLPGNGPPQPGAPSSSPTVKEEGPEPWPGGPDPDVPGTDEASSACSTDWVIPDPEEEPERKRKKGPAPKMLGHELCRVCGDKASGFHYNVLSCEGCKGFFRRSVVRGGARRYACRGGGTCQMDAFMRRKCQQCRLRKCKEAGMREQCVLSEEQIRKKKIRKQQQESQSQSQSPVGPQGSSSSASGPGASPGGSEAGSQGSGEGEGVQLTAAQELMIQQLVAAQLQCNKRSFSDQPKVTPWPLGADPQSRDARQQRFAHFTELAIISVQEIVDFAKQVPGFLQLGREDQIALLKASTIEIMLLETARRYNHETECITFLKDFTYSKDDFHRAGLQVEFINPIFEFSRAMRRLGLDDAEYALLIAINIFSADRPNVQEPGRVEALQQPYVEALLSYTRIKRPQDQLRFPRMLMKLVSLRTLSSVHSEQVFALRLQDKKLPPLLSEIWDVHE
Description: (§1) Luciferase Reporter Assay.

[1] = system: Islet1+ oculomotor neurons; assay: Islet1+ cells in mouse E11.5 brain primary cultures; format: cell-based; details: for Number of Islet1+ cells / Concentration giving significant difference from vehicle in Islet1+ cells: wild type cultures; for Concentration giving significant difference from vehicle in Islet1+ cells: p<0.05
Method in brief: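 E11.5 mouse brain cells were plated on poly-D-lysine at 150,000 cells/cm^2 in serum-free N2 medium and treated for 3 DIV. After PFA fixation they were immunostained for cleaved caspase-3, Islet-1, TH, GABA, Brn3a, Nkx6.1 or ChAT. Marker-positive cells were counted at 20× in eight fields per well, three wells per experiment, across three experiments.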

Lxrβ-LBD = target: T2, Lxrβ-LBD (Homo sapiens, UniProt P55055); assay: Lanthascreen TR-FRET Lxrβ coactivator assay; format: binding
T2 construct: the Lxrβ-LBD tagged with glutathione-S-transferase (GST); purchased Invitrogen
T2 sequence (P55055 222-460 limits assumed): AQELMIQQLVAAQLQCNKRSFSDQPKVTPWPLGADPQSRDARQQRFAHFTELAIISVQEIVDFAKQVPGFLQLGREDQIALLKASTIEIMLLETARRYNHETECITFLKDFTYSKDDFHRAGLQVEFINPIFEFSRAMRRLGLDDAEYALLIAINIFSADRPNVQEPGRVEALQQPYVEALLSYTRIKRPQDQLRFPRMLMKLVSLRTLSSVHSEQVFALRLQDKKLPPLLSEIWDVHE
Description: Lxrβ Ligand Binding Assay. For Lxrβ ligand binding activity measurement, the applicants used the Lanthascreen™ TR-FRET Lxrβ Coactivator Assay (Invitrogen). The assay uses a terbium (Tb)-labeled anti-GST antibody, a fluorescein-labeled coactivator peptide and the Lxrβ-LBD tagged with glutathione-S-transferase (GST). Binding of the agonist/ligand to Lxrβ-LBD causes a conformational change that result in an increase in the affinity of the Lxrβ for the coactivator peptide. The close proximity of the fluorescently labeled coactivator peptide to the Tb-labeled antibody causes an increase in the TR-FRET signal intensity. The TR-FRET ratio of 520/495 was calculated using a Victor multi label reader with an excitation wavelength of 340 nm and emission wavelengths of 520 nm and 495 nm, The activational capacity of potential ligands was tested in a […] polypropylene plate, following the manufacturer's protocol.

[2] = system: TH+ dopamine neurons, GABAergic or red nucleus neurons; Nkx6.1+ cells; assay: Other cell types in mouse E11.5 brain primary cultures; format: cell-based
Protocol: (§2) Primary Brain Cultures. Brains from E11.5 mice were manually dissected, plated on poly-D-lysine (150,000 cells/cm^2) and grown in serum-free N2 media consisting of 1:1 mixture of F12 and DMEM with 10 ng/mL insulin, 100 μg/mL apo-transferrin, 100 μM putrescine, 20 nM progesterone, 30 nM selenium, 6 mg/mL glucose, and 1 mg/mL BSA. Cells were treated for 3 days in vitro (DIV) with the compounds of interest, fixed with 4% PFA and processed for staining using appropriate antibodies.
(§3) Antibodies and Detection Procedures. Cells were fixed in 4% PFA, washed in PBS and blocked in 5% normal goat serum/PBS for 1 h at room temperature. Primary antibodies were diluted in PBS (pH 7.4), 0.3% Triton X-100, 1% BSA and incubations were carried out overnight at +4° C. or at room temperature for 2 h. The antibodies used were anti-:BrdU (1:400; Abeam), Islet-1 (1:100: Developmental Studies Hybridoma Bank), cleaved caspase-3 (Aspt 75) (1:100; Cell Signaling Technology), tyrosine hydroxylase (TH; 1:1000; Pel-Freeze) GABA (1:1,000; Sigma), Bm3a (1:250; Millipore), Nkx6.1 (1:200; Novus Biologicals), choline acetyltransferase (ChAT; 1:500; Millipore) and appropriate secondary antibodies (Jackson ImmunoResearch or Alexa). Cells positive for the corresponding marker were counted directly at the microscope at a magnification of 20×. Cells were counted in every well, in eight consecutive fields (going from one side of the well to the other, passing through the center), in three different wells per experiment and in three different experiments per condition. Random pictures of the wells were taken for every condition to document the result, and representative pictures were subsequently selected to represent the quantitative data. Photos were acquired with a Zeiss Axioplan microscope and a Hamamatsu camera C4742-95 using the Openlab software.

Lxrα = target: T3, Lxrα (Homo sapiens, UniProt Q13133); assay: Lxrα luciferase reporter assay in SN4741 neural cells; format: cell-based, mouse; details: 10 μM, 24 h
T3 construct: expressed in transfected cells; host or cells: SN4741 mouse neuronal cell line
T3 sequence (Q13133 1-447): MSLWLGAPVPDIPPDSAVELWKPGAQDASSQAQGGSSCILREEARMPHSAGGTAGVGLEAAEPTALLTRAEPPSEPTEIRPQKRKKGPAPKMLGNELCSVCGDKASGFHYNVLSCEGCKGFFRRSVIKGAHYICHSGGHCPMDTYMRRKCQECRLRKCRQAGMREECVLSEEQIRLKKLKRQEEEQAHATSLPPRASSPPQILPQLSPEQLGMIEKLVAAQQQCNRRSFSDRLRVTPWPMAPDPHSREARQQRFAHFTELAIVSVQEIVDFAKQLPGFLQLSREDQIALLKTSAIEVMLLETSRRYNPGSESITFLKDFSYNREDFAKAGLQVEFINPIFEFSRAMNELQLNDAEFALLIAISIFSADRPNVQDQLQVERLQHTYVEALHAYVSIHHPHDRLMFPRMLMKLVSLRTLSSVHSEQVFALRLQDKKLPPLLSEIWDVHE
Description: as §1

active caspase 3+ cells = assay: Active caspase 3+ cells in mouse E11.5 brain primary cultures; format: cell-based; details: for Concentration giving significant difference from vehicle in active caspase 3+ cells: p<0.05; for Number of active caspase-3+ cells: wt cultures, 3β,7α-diHCA, 3βH,7O-CA, 25-HC at 10 μM, toxic acids at low concentrations
Protocol: as §2, §3

Structure (SMILES) | Lxr activational capacity in combination with 22R-HC (Lxrβ) | Lxrβ activation, luciferase activity (fold activation) (Lxrβ) | Rescue of loss of Islet1+ cells induced by 2 μM 3β,7β-diHCA or 3β-HCA ([1]; 10 μM) | Effect on Islet1+ cells in Lxrα−/−β−/− cultures ([1]; cultures from Lxrα−/−β−/− mice) | Number of Islet1+ cells [1] | Concentration giving significant difference from vehicle in Islet1+ cells [1] | Effect on Islet1+ cells with Lxr antagonist GGPP ([1]; wt cultures, 10 μM GGPP) | TR-FRET signal (coactivator recruitment to Lxrβ-LBD) (Lxrβ-LBD; dose response) | Total number of Nkx6.1+ cells [2] | Number of other midbrain neurons (TH+ dopamine, GABAergic, red nucleus) ([2]; data not shown) | Lxrα activation, luciferase activity (fold activation) (Lxrα) | Reduction of neuronal cell death (activated caspase 3) induced by 2 μM 3β,7β-diHCA or 3β-HCA (active caspase 3+ cells; 10 μM) | Effect on active caspase-3+ cells with GGPP (active caspase 3+ cells; 10 μM GGPP, toxic acids at 2 μM) | Concentration giving significant difference from vehicle in active caspase 3+ cells (active caspase 3+ cells) | Number of active caspase-3+ cells (active caspase 3+ cells) | Competition with the effect of 3β,7α-diHCA in TR-FRET (Lxrβ-LBD; 3β,7α-diHCA at 10 μM plus increasing concentrations of competitor) | Competitor concentration giving significant difference from 10 μM 3β,7α-diHCA alone in TR-FRET (Lxrβ-LBD; p<0.05 vs 10 μM 3β,7α-diHCA) | Surviving cells in cultures (active caspase 3+ cells; 10 μM) | Concentration at which toxicity is initiated (active caspase 3+ cells; mouse, primary brain cultures from E11.5 mouse embryos, 3 days)
CC(CCC[C@@H](C)[C@H]1CC[C@H]2[C@@H]3[C@H](O)C=C4C[C@@H](O)CC[C@]4(C)[C@H]3CC[C@]12C)C(=O)O (stereo partly drawn) [3β,7α-diHCA, 3β,7α-dihydroxycholest-5-en-26-oic acid] | No additive effect was observed | have the ability to activate both Lxrs | reversed the loss of Islet1+ cells | eliminated | increased the number of Islet1+ oculomotor cells in the cultures | ≥ 5 µM | blocked by the Lxr antagonist GGPP | induced FRET in a dose dependent manner to a higher degree than the other acids | neither 3β,7α-diHCA nor 3β-HCA altered the total number of Nkx6.1+ cells | did not affect the number of other midbrain neurons | have the ability to activate both Lxrs | reduced the neuronal cell death | completely blocked by co-incubation with the Lxr inhibitor GGPP | ≥ 10 µM | decreased the number of active caspase-3+ cells |  |  |  | 
CC(CCC[C@@H](C)[C@H]1CC[C@H]2[C@@H]3CC=C4C[C@@H](O)CC[C@]4(C)[C@H]3CC[C@]12C)C(=O)O (stereo partly drawn) [3β-HCA, 3β-hydroxycholest-5-en-26-oic acid] | No additive effect was observed | activates Lxr |  |  | caused the loss of Islet1+ cells in the cultures | ≥ 2 µM |  |  | neither 3β,7α-diHCA nor 3β-HCA altered the total number of Nkx6.1+ cells |  | activates Lxr |  |  | ≥ 2 µM | increased the number of active caspase-3+ cells | the effect of 3β,7α-diHCA was reduced to that of the latter acids | ≥ 5 | no surviving cells were detected | 1000 nM
